In ChEMBL document CHEMBL1201862, “PubChem BioAssay data set” (2004):
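A five-concentration, 48-hour dose response in 96-well plates underlies each endpoint, interpolated linearly between surrounding concentrations. GI50 = concentration required for 50% inhibition of growth.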 The source made the active and inactive calls. No stated cut-off is given here; in the data, active = GI50 up to about 1.1 µM and inactive = higher. Non-standard residues stand in square brackets, D forms with d. Residues, ends and D or L forms follow the SMILES beside them. ξ: configuration not given here. Pentanoyl(2-O,4-OH,5-Cl) = O=C(O)C(O)CC(O)CCl; Ile(3ξ) = CCC(C)[C@H](N)C(=O)O; NMeV = CN[C@H](C(=O)O)C(C)C; NMeA = CN[C@@H](C)C(=O)O; βAla = NCCC(=O)O

Assays:
Assay in all cases: NCI anticancer screen, dose series, 48 h
LXFL 529 = system: LXFL 529
TK-10 = system: TK-10
NCI/ADR-RES = system: NCI/ADR-RES
XF498 = system: XF498
Hs-578T = system: Hs-578T
MDA-MB-231 = system: MDA-MB-231
T47D = system: T47D
MDA-N = system: MDA-N
RXF 631 = system: RXF 631

| Structure (SMILES) | GI50 (LXFL 529) | GI50 (TK-10) | GI50 (NCI/ADR-RES) | GI50 (XF498) | GI50 (Hs-578T) | GI50 (MDA-MB-231) | GI50 (T47D) | GI50 (MDA-N) | GI50 (RXF 631) |
| --- | --- | --- | --- | --- | --- | --- | --- | --- | --- |
| Nc1ccccc1Sc1ccc(Cl)cc1 | 38.2 µM (inactive) | 35.6 µM (inactive) |  |  |  |  |  |  |  |
| COc1ccc2[nH]c3c(C)c4ccncc4c(C)c3c2c1 |  |  | 0.139 µM (active) | 2.7 µM (inactive) |  |  |  |  |  |
| CCC(C)[C@@H]1NC(=O)[C@@H]2CCCN2C(=O)C(CC(O)CCl)OC(=O)CCNC(=O)[C@H](C)N(C)C(=O)[C@H](C(C)C)N(C)C1=O (stereo partly specified) (cyclo([Ile(3ξ)][NMeV][NMeA][βAla][Pentanoyl(2-O,4-OH,5-Cl)]P)) |  | > 100 µM (inactive) | > 100 µM (inactive) |  | > 91.6 µM (inactive) | > 47.5 µM (inactive) | 3.94 µM (inactive) | > 100 µM (inactive) |  |
| COC1C(O)C(n2ncc3c(SC)nc(SC)nc32)OC1C(O)CO (stereo unspecified) |  |  | > 100 µM (inactive) | > 100 µM (inactive) |  |  |  |  |  |
| CC1=NN(C(=O)c2ccccc2O)C(=O)/C1=C/c1c(O)ccc2ccccc12 | 1.72 µM (inactive) | 8.87 µM (inactive) | 1.34 µM (inactive) | 4.86 µM (inactive) | 21.4 µM (inactive) | 3.97 µM (inactive) | 41.1 µM (inactive) | 5.2 µM (inactive) |  |
| CN(C)CCCNC(=O)N/N=C/c1ccccc1 |  | > 100 µM (inactive) |  | > 100 µM (inactive) |  |  |  |  |  |
| Cc1ccc(C#CS(=O)(=O)C(F)(F)F)cc1 |  |  | > 100 µM (inactive) | > 100 µM (inactive) |  |  |  |  |  |
| CN(C)c1ccc(C2CC(=O)CC(c3ccc(N(C)C)cc3)C23C(=O)NC(=O)NC3=O)cc1 (stereo unspecified) |  | > 25 µM (inactive) | > 25 µM (inactive) |  |  | > 25 µM (inactive) | > 25 µM (inactive) | > 25 µM (inactive) |  |
| N#Cc1c(NC(=S)NC(=O)c2ccccc2)nc2c(c1-c1ccccc1)CCCC2 |  | > 100 µM (inactive) | 51.6 µM (inactive) |  | 17 µM (inactive) | 93.8 µM (inactive) | 17.7 µM (inactive) | > 100 µM (inactive) |  |
| CSc1nc(NC2OC(COC(C)=O)C(OC(C)=O)C(OC(C)=O)C2OC(C)=O)c2c(OC(C)=O)c(C)c(=O)oc2n1 (stereo unspecified) | > 100 µM (inactive) | > 100 µM (inactive) |  | > 100 µM (inactive) |  |  |  |  |  |
| COc1ccc(C2c3cc4c(cc3OC(NCCO)C2C)OCO4)cc1 (stereo unspecified) |  | 23.8 µM (inactive) |  |  | 19.3 µM (inactive) | 26.9 µM (inactive) | 30.3 µM (inactive) | 18.2 µM (inactive) |  |
| O=C1NC(=O)C(CCO)(c2ccccc2)C(=O)N1 |  |  | > 100 µM (inactive) | > 68.4 µM (inactive) |  |  |  |  |  |
| N#CC1=C(O)NC(O)=C(C#N)C1c1c(Cl)cccc1Cl |  | 40.4 µM (inactive) |  | 61.4 µM (inactive) |  |  |  |  |  |
| CSCCC(NC(=O)OCc1ccccc1)P(=O)(O)c1ccccc1 (stereo unspecified) |  | > 100 µM (inactive) | > 100 µM (inactive) |  | > 100 µM (inactive) | > 100 µM (inactive) | > 100 µM (inactive) | > 100 µM (inactive) |  |
| c1ccc2c(c1)NCc1cc3ccccc3nc1O2 |  |  | > 77.8 µM (inactive) | > 100 µM (inactive) |  |  |  |  |  |
| Oc1c(Br)ccc2cccnc12 |  | 5.04 µM (inactive) | 1 µM (active) |  | 3.21 µM (inactive) | 1.87 µM (inactive) | 1.51 µM (inactive) | > 19.8 µM (inactive) |  |
| O=[N+]([O-])c1cccc2nccc(NCC(O)CO)c12 (stereo unspecified) |  | 18 µM (inactive) | 25.5 µM (inactive) |  | 7.8 µM (inactive) | 11.5 µM (inactive) | 24.2 µM (inactive) | 17.1 µM (inactive) |  |
| Cc1c(Cl)c(=O)oc2cc(OCC(=O)c3ccccc3)ccc12 |  | 92 µM (inactive) | > 100 µM (inactive) |  | > 100 µM (inactive) | 29.4 µM (inactive) | > 100 µM (inactive) | > 100 µM (inactive) |  |
| CCOP(=O)(CN=C(c1ccccc1)c1ccccc1)OCC |  | > 100 µM (inactive) | > 100 µM (inactive) |  | > 100 µM (inactive) | > 100 µM (inactive) | 86.7 µM (inactive) | > 100 µM (inactive) |  |
| Cc1nn(C)c2c1C(=O)N(C)CC(=O)N2C |  | > 100 µM (inactive) |  |  | > 100 µM (inactive) |  |  | > 100 µM (inactive) |  |
| Nc1ccc(N(S(=O)(=O)c2ccccc2)S(=O)(=O)c2ccccc2)c(Cl)c1 |  | 55.1 µM (inactive) | 40.2 µM (inactive) |  | 64 µM (inactive) | 98.2 µM (inactive) | 48.1 µM (inactive) | 28.9 µM (inactive) |  |
| CCOC(=O)c1c[nH]c2cc3c(cc2c1=O)CCS3(=O)=O.CCOC(=O)c1c[nH]c2ccc3c(c2c1=O)S(=O)(=O)CC3 |  |  | > 100 µM (inactive) | > 100 µM (inactive) |  |  |  |  |  |
| CC(C)(C)/N=c1/n(C(C)(C)C)oc(=O)n1C(C)(C)C |  | > 100 µM (inactive) | > 100 µM (inactive) |  | > 100 µM (inactive) | > 100 µM (inactive) |  | > 100 µM (inactive) |  |
| Nc1ccccc1S(=O)(=O)c1ccccc1 | > 100 µM (inactive) | > 100 µM (inactive) |  |  |  |  |  |  | > 100 µM (inactive) |
| CC(C)CC(N)C(=O)NC(CNC(CCC(N)=O)C(=O)NC(CC(C)C)C(=O)NC(CC(C)C)C(=O)O)Cc1ccc2ccccc2c1 (stereo unspecified) |  | > 10 µM (inactive) | > 10 µM (inactive) |  | > 10 µM (inactive) | > 10 µM (inactive) |  | > 10 µM (inactive) |  |
| C=CCC12CC(=O)C=C1CCC1(C2)OCCO1 (stereo unspecified) | > 100 µM (inactive) | > 100 µM (inactive) |  |  |  |  |  |  | > 100 µM (inactive) |
| Cc1ccc(S(=O)(=O)N(C=O)N=C2CCN(Cc3ccccc3)CC2)cc1 | > 100 µM (inactive) | > 100 µM (inactive) |  | > 100 µM (inactive) |  |  |  |  | > 100 µM (inactive) |
| O=C/C(=C1/C=Cc2cc([N+](=O)[O-])ccc2S1)c1ccccc1 |  | > 100 µM (inactive) | > 100 µM (inactive) |  | > 100 µM (inactive) | > 100 µM (inactive) | > 100 µM (inactive) | > 100 µM (inactive) |  |
